Measurements from patent publication US6337314B1, “Mammalian-derived peptides for the treatment of microbial infections” (Theragem, Inc., priority 1997, dated 2002).
Like-named read-outs stand apart in the source and are kept apart here. Marks after values point to notes of the source that are not given here. No end group written: not given here.

Tests used:
Format in all cases: cell-based
[1] = tested on: Candida albicans
Protocol: (§1) Staphylococcus aureus was strain RN6390, Pseudomonas aeruginosa was strain PA01, Escherichia coli was strain MC4100, Streptococcus faecalis was ATCC 8043 and Candida albicans was a clinical isolate from the Presbyterian Hospital.
B. Radial diffusion assay
The fungus is grown for 3 hrs from an overnight culture in Sabouraud dextrose broth, centrifuged at 10,000 g for 10 min, washed twice in NaPB pH 5.5, and resuspended in NaPB (pH 5.5) at a final concentration of 4×10^7/ml. A 0.1 ml aliquot of this fungal suspension (4×10^6 CFU) is added to 10 ml of autoclaved and cooled to (42° C.) NaPB pH 5.5 containing 1% w/v of low electroendosmosis type agarose (Sigma). After mixing the fungus in, the agar is poured into Lab-Tek square Petri dishes to form a uniform 1 mm thick layer. Wells with a 3 mm diameter are punched in and filled with 5 μl of control or sample, the plates are incubated for 3 hrs at 37° C. and overlaid with 10 ml of sterile agar maintained at 42° C. The overlay agar is 2× Sabouraud agar. After incubation of 18-24 hrs at 37° C., the diameter of the clear zone surrounding the wells containing an antifungal agent is measured.
(§2) Measurement of the antimicrobial activity of human hemoglobin, its heme-free α and β chains, CNBr-derived fragments of the α and β chains, and synthetic peptides derived therefrom were determined by radial diffusion assay and in some cases by plate assay. […] MIC is estimated by linear extrapolation of data points to an intercept with the x axis.
(§3) Each assay was performed with 3 experimental runs except where indicated. […] The assay method was patterned after that of Lee et al (23).

[2] = tested on: Escherichia coli MC4100
Text: as §1
D. Radial diffusion assay for antibiotic activity against Escherichia coli MC4100
A single colony of Escherichia coli MC4100 is inoculated into trypicase soy broth and grown to mid-exponential phase (OD600−0.7). The cultures are washed in NaPB pH 5.5 and dissolved to a final concentration of 5×10^7CFU/ml. A 0.2 ml aliquot of this bacterial suspension (10^7CFU/ml) is added to 10 ml of autoclaved and cooled (to 42° C.) NaPB containing 0.02% Bovine Serum Albumin (BSA) and 0.02% Triton X100., 1% w/v of low electroendosmosis type agarose (Sigma). After mixing the bacteria in, the agarose is poured into Lab-Tek square Petri dishes to form a uniform thick layer. Wells with a 2.7 mm diameter are punched in and filled with 4.5 ul of control or sample, the plates are incubated for 3 hours at 37° C., and overlaid with 10 ml of sterile agar maintained at 42° C. The overlay agar is 6% (w/v) TSB and 1% w/v Bacto-agar. After incubation for 18-24 hours at 37° C., the diameter of the clear zone surrounding the wells containing an antibacterial agent is measured.
as §2, §3

[3] = tested on: Streptococcus faecalis ATCC 8043; assay: Radial diffusion assay for antibiotic activity against Streptococcus faecalis ATCC 8043
Protocol: as §1
E. Radial diffusion assay for antibiotic activity against Streptococcus faecalis ATCC 8043
A single colony is inoculated in 10 mL of TSB overnight shaking at 37C. Approximately 0.3 ml is added to 10 mL fresh TSB and shaken at 37° C. This is allowed to grow to mid-log phase (OD600=0.6). The culture is washed 2× in NaPB pH 5.5 by spinning at 5000 rpm. for 10 min. OD is rechecked after washing to determine exact bacterial concentration. The washed bacteria are added at a concentration of 10^7/plate to the lower layer (NaPB pH 5.5/1% Low Electroendosmosis agarose). Dilutions of Hemoglobin dilutions in NaPB pH 5.5 are added to the plate, allowed to diffuse in the layer, and incubated in wet box at 37C for 3 hours. Following the incubation, 10 mL of nutrient medium, 6% TSB and 1% Bactoagar, is added as a top layer and plates are incubated in the wet box overnight at […].
as §2
Each assay was performed with 3 experimental runs except where indicated. The radial diffusion assay is reliable and gives consistent results when used with the purified or semipurified compositions of the invention. The assay method was patterned after that of Lee et al (23).

[4] = tested on: Staphylococcus aureus RN6390; assay: Radial diffusion assay for antibiotic activity against Staphylococcus aureus RN6390; settings: pH 5.5, radial diffusion
Text: Staphylococcus aureus was strain RN6390, Pseudomonas aeruginosa was strain PA01, Escherichia coli was strain MC4100, Streptococcus faecalis was ATCC 8043 and Candida albicans was a clinical isolate from the Presbyterian Hospital. B. Radial diffusion assay for antibiotic activity against Staphylococcus aureus RN6390 A single colony of Staphylococcus aureus RN6390 is inoculated into CYGP broth and grown to mid-exponential phase (OD600=0.7). The cultures are washed in NaPB pH 5.5 and dissolved to a final concentration of 5×10^7 CFU/ml. A 0.2 ml aliquot of this bacterial suspension (10^7 CFU) is added to 10 ml of autoclaved and cooled (to 42° C.) NaPB buffer, 1% w/v of low electroendosmosis type agarose (Sigma). After mixing the bacteria in, the agarose is poured in Lab-Tek square Petri dishes to form a uniform thick layer. Wells with a 2.7 mm diameter are punched in and filled with 4.5 ul of control or sample, the plates are incubated for 3 hours at 37° C., and overlaid with 10 ml of sterile agar maintained at 42° C. The overlay agar is 2× CYGP broth and 1% w/v Bacto-agar. After incubation for 18-24 hours at 37° C., the diameter of the clear zone surrounding the wells containing an antibacterial agent is measured. Measurement of the antimicrobial activity of human hemoglobin, its heme-free α and β chains, CNBr-derived fragments of the α and β chains, and synthetic peptides derived therefrom were determined by radial diffusion assay and in some cases by plate assay. […] MIC is estimated by linear extrapolation of data points to an intercept with the x axis. Each assay was performed with 3 experimental runs except where indicated. The radial diffusion assay is reliable and gives consistent results when used with the purified or semipurified compositions of the invention. The assay method was patterned after that of Lee et al (23).

[5] = tested on: Pseudomonas aeroginosa PA01; assay: Radial diffusion assay for antibiotic activity against Pseudomonas aeroginosa PA01; settings: Pseudomonas aeruginosa
Protocol: Staphylococcus aureus was strain RN6390, Pseudomonas aeruginosa was strain PA01, Escherichia coli was strain MC4100, Streptococcus faecalis was ATCC 8043 and Candida albicans was a clinical isolate from the Presbyterian Hospital. C. Radial diffusion assay for antibiotic activity against Pseudomonas aeroginosa PA01 A single colony of Pseudomonas aeroginosa PA01 is inoculated into trypticase soy broth and grown to mid-exponential phase (OD600−0.7). […] A 0.2 ml aliquot of this bacterial suspension (10^7CFU/ml) is added to 10 ml of autoclaved and cooled (to 42° C.) NaPB buffer, 1% w/v of low electroendosmosis type agarose (Sigma). After mixing the bacteria in, the agarose is poured in Lab-Tek square Petri dishes to form a uniform thick layer. Wells with a 2.7 mm diameter are punched in and filled with 4.5 ul of control or sample, the plates are incubated for 3 hours at 37° C., and overlaid with 10 ml of sterile agar maintained at 42° C. The overlay agar is 6% (w/v) TSB and 1% w/v Bacto-agar. After incubation for 18-24 hours at37° C., the diameter of the clear zone surrounding the wells containing an antibacterial agent is measured. Measurement of the antimicrobial activity of human hemoglobin, its heme-free α and β chains, CNBr-derived fragments of the α and β chains, and synthetic peptides derived therefrom were determined by radial diffusion assay and in some cases by plate assay. […] MIC is estimated by linear extrapolation of data points to an intercept with the x axis. Each assay was performed with 3 experimental runs except where indicated. The radial diffusion assay is reliable and gives consistent results when used with the purified or semipurified compositions of the invention. The assay method was patterned after that of Lee et al (23).

[6] = tested on: Escherichia coli MC4100; settings: pH 7.4, radial diffusion
[7] = Candida albicans, Table 2 CNBr cleavage products, pH not given in table (method NaPB pH 5.5)
[8] = Escherichia coli, Table 2 CNBr cleavage products, pH not given in table (method NaPB pH 5.5)
[9] = Streptacoccus faecalis, Table 2 CNBr cleavage products, pH not given in table (method NaPB pH 5.5)
[10] = Candida albicans, pH 5.5, radial diffusion
[11] = Escherichia coli, pH 5.5, radial diffusion
[12] = Streptococcus faecalis, pH 5.5, radial diffusion

Substance | Minimum Inhibitory Concentration (MIC) [1, 7] [µg/mL] | Minimum Inhibitory Concentration (MIC) [2, 8] [µg/mL] | Minimum Inhibitory Concentration (MIC) [3, 9] [µg/mL] | Minimum Inhibitory Concentration (MIC) [1, 10] [µg/mL] | Minimum Inhibitory Concentration (MIC) [2, 11] [µg/mL] | Minimum Inhibitory Concentration (MIC) [4] [µg/mL] | Minimum Inhibitory Concentration (MIC) ([5]; pH 5.5, radial diffusion) [µg/mL] | Minimum Inhibitory Concentration (MIC) [3, 12] | other results
α-3: CNBr cleavage fragment of human hemoglobin α chain, residues 77-141, SEQ ID NO:3 | 10 to 50 | 5 to 8 | 7 |  |  |  |  |  | 
α chains: Heme-free α chain of human hemoglobin, 141 amino acid residues, SEQ ID NO:10, separated by C4 reverse-phase HPLC |  |  |  | 7 | 1 to 2 | 300 | 50 | 3* μg/ml | 
Hemoglobin: Human hemoglobin (MW=64,500), two α and two β chains with four heme groups; crude Hb purchased from Sigma Chemicals |  |  |  | 50 to 70 | 1 to 5 | 4 to 6 | 5 | 200 to 1000 µg/mL | Minimum Inhibitory Concentration (MIC) ([5]; pH 7.4, radial diffusion): 50 µg/mL; Minimum Inhibitory Concentration (MIC) [6]: 35 to 100 µg/mL
β chains: Heme-free β chain of human hemoglobin, 146 amino acid residues, SEQ ID NO:1, separated by C4 reverse-phase HPLC |  |  |  | >50 | 1.5 to 5 | 10 | 40 to 60 | 20 µg/mL | Minimum Inhibitory Concentration (MIC) [6]: 10 to 30 µg/mL
β-1: CNBr cleavage fragment of human hemoglobin β chain, residues 1-55, SEQ ID NO:9 | 25 | >100 | >50 |  |  |  |  |  | 
β-2: CNBr cleavage fragment of human hemoglobin β chain, residues 56-146, SEQ ID NO:2 | 25 | 5 | 8 |  |  |  |  |  | activity against C. albicans (in words) ([1]; C. albicans): highly active; activity against E. coli (in words) ([2]; E. coli): highly active
GNPKVKAHGKKVLGAFS [Peptide I] |  |  |  |  |  |  |  |  | Minimum Inhibitory Concentration (MIC) ([1]; 3 h, pH 5.5): 10 µg/mL; Minimum Inhibitory Concentration (MIC) ([2]; MC4100, pH 5.5): 15 µg/mL
α-1: CNBr cleavage fragment of human hemoglobin α chain, residues 1-32, SEQ ID NO:7 |  | >100 | 100 |  |  |  |  |  | 
α-2: CNBr cleavage fragment of human hemoglobin α chain, residues 33-76, SEQ ID NO:8 |  | >100 |  |  |  |  |  |  | 
